# Source: the METLIN SMRT retention time set (Domingo-Almenara et al. 2019)
# Assay: gradient 5% acetonitrile 3 min, to 50% in 2 min, to 85% in 15 min, held 3 min, 100 µL/min
# Details: column: Zorbax Extend-C18 2.1 x 50 mm; eluents: water / acetonitrile, 0.1% formic acid
# Outline: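 Over 3 months, pure standards in mixtures of ~100 molecules were run by HPLC coupled to a quadrupole time-of-flight mass spectrometer in positive and negative ionization mode. The column was a Zorbax Extend-C18 (2.1 × 50 mm, 1.8 μm) at 100 μL/min, eluted with water and acetonitrile each holding 0.1% formic acid, with 40 μL dead and 900 μL dwell volumes. Retention time was determined from adduct peaks chosen by software and checked manually.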
row,RP-LC retention time [s],SMILES
1,746,CN1C(=O)c2cccnc2Sc2cc(C(=O)NCc3ccccc3)ccc21
2,706,CCN(CC)C(=O)C1c2cc(OC)c(OC)cc2C(=O)N(C)C1c1ccc(OC)c(OC)c1 (centres undefined)
3,812,COC(=O)c1cc(OCC(=O)Nc2ccc(OC)c(Cl)c2)c2ccccc2n1
4,608,O=C(Cn1cnc2ccccc21)N1CCC(COCc2ccccc2)CC1
5,756,Cc1noc([C@@H]2CC(F)(F)CN2C(=O)c2occc2C)n1
6,798,CCOC(=O)C1CCCN(S(=O)(=O)c2cccc3cccnc23)C1 (centres undefined)
7,1160,Cc1sc(-c2cc(C(F)(F)F)on2)cc1S(=O)(=O)NCc1ccc(F)cc1
8,747,Cc1cc(-c2nnc(-c3ccccc3)o2)c(C)n1CC(=O)Nc1cc(F)cc(F)c1
9,770,COCCN(C)C(=O)c1cc2c(s1)N(C)CCCC2
10,660,COc1ccc(-c2ncc3c(n2)CCN(C(=O)Nc2cc(C)ccc2C)C3)cc1
11,672,CCOCCCNCc1ccc(-c2ccc(F)cc2)o1
12,737,Cc1noc(-c2ccc(OC3CN(C(=O)Nc4ccccc4)C3)cc2)n1
13,864,O=C(c1cn(-c2ccc(-c3nc(C4CC4)no3)cn2)cn1)N1CCCCC1
14,883,CCCC(=O)Nc1cc2c(cc1S(=O)(=O)c1ccccc1)n(CC)c(=O)n2CC
15,888,Cc1ccc(C)c(C(=O)Nc2ccc3c(c2)Sc2ncccc2C(=O)N3C)c1
16,1380,CCCc1ccc(S(=O)(=O)N2CCCC2c2nc(-c3ccc(Cl)cc3)no2)cc1 (centres undefined)
17,1030,O=C(NCCc1csc(-c2ccc(Cl)cc2)n1)C(=O)Nc1ccc2c(c1)OCCO2
18,971,Cc1ccc(S(=O)(=O)N(C)C)cc1-c1nnc(-c2ccccc2)o1
19,881,O=C(Cn1cnc2nc3c(cc2c1=O)CCCC3)N1CCN(c2cccc(C(F)(F)F)c2)CC1
20,660,Cc1nc(CNC(=O)C2CCN(C(=O)NCCc3ccccc3)CC2)cs1
21,1110,CCOc1ccc(-c2noc(Cn3c(=O)n(Cc4ccccc4)c(=O)c4sccc43)n2)cc1OC
22,692,CCOC(=O)c1nc(Nc2ccc(S(=O)(=O)Nc3nc(C)cc(C)n3)cc2)c2ccccc2n1

row,RP-LC retention time [s],SMILES
1,643,COc1ccccc1CNC(=O)c1nc(N2CCOCC2)c2c(C)cc(C)nc2n1
2,924,O=C(CCC1CCCC1)NCCC1CCN(C(=O)Nc2cc(F)ccc2F)CC1
3,931,Cc1ccc(CNC(=O)c2ccc3c(c2)N(C)C(=O)c2ccccc2O3)cc1
4,964,Cc1ccc(NC(=O)N2CCCC2c2nc(-c3ccccc3)no2)cc1 (centres undefined)
5,712,Cc1ccccc1-c1cc(C(=O)N2CCC(NC(=O)C3CCCC3)CC2)[nH]n1
6,1050,O=C(Cn1ccc2ccc(N3CCOCC3)nc21)N1CCC(Cc2ccccc2)CC1
7,732,CCn1cnc(S(=O)(=O)N2CCC(C(=O)Nc3cccc4ccccc34)CC2)c1
8,811,O=C(c1ccc2nsnc2c1)N1CCN(c2ccc(F)cc2)CC1
9,847,CC(C)c1cc(C2CCCN2C(=O)c2ccccc2)no1 (centres undefined)
10,804,Cc1cc(C(=O)OCC(=O)c2cccc([N+](=O)[O-])c2)c2ccccc2n1
11,942,Cc1ccccc1-n1ccn(Cc2nc(-c3ccc(F)c(Cl)c3)no2)c(=O)c1=O
12,1070,COc1cc(Nc2nc(-c3nnn(-c4cc(Cl)ccc4OC)c3C)ns2)cc(OC)c1
13,1090,O=C(CSc1cc(-n2cccn2)ncn1)Nc1cc(Cl)ccc1Cl
14,950,Cc1nn(-c2ccccc2)c(C)c1S(=O)(=O)N1CCC(C(=O)Nc2ccccc2F)CC1
15,1070,CNC(=O)c1noc([C@@H]2CC(F)(F)CN2Cc2ccc(C)o2)n1
16,836,Cc1cccc(N2C(=O)CN(CC(C)C)[C@H]3CS(=O)(=O)C[C@H]32)c1
17,942,O=C(Cc1csc2nc(-c3cccc(Cl)c3)cn12)Nc1ccc(F)cc1F
18,581,O=C(c1cccnc1)N1CCC(c2noc(-c3cnccn3)n2)C1 (centres undefined)
19,749,COc1ccc(CCC(=O)NCc2cccnc2OC)cc1
20,806,O=C(CC1CCN(C(=O)Nc2ccccc2Cl)CC1)N1CCCCC1
21,756,Cc1noc(COC2CCCN(C(=O)NCCc3ccccc3)C2)n1 (centres undefined)
22,876,Cc1[nH]c(C(=O)N2CCC(CC(=O)NCc3ccccc3Cl)CC2)c(C)c1C(=O)OC(C)C

row,RP-LC retention time [s],SMILES
1,822,COC(=O)c1cc(OCC(=O)Nc2ccc(F)cc2F)c2cc(OC)ccc2n1
2,938,Cc1ccc2c(c1)cc(S(=O)(=O)c1ccccc1)c(=O)n2CC(=O)NCCC(C)C
3,793,COCCN1C(=O)CCc2cc(NS(=O)(=O)c3ccc(Cl)s3)ccc21
4,693,COCCNC(=O)C1CCCN(C(=O)c2cccc(C(F)(F)F)c2)C1 (centres undefined)
5,879,N#Cc1ccsc1NC(=O)CCSc1ccccc1
6,650,O=C(Cc1cccc(F)c1)Nc1ccc2c(c1)CCC(=O)N2
7,584,O=C(NCCCN1CCOC(c2ccccc2)C1)NC1CCCCC1 (centres undefined)
8,917,COc1ccc(NC(=O)N2CCc3cn(C)c4cccc(c34)C2)cc1Cl
9,1050,CCn1cc(-c2nc(CC(=O)NC3CCCCCC3)cs2)c2cccnc21
10,1050,O=C(CSc1cc(N2CCN(c3ccccc3F)CC2)ncn1)NC1CCCCC1
11,625,Cc1noc(C)c1CC(=O)NC1CCc2nn(CC3CC3)c(=O)n2CC1 (centres undefined)
12,720,COc1ccc(C(=O)NC2CCN(c3cc(-c4cccs4)[nH]n3)C2)cc1F (centres undefined)
13,785,O=C(N1CCC[C@H]1c1nc(-c2ccccc2)n[nH]1)C1(c2ccccc2)CC1
14,858,O=C(Nc1cc(F)cc(F)c1)C1CCN(C(=O)c2ncn3c2COC(c2ccc(F)cc2)C3)CC1 (centres undefined)
15,670,CC(=O)c1ccc(NC(=O)C2CC(=O)N(c3ccc4c(c3)CCN4C(C)=O)C2)cc1 (centres undefined)
16,945,COc1cccc(-c2ccnc3nc(Cc4cc(F)cc(F)c4)nn23)c1
17,697,COCCC(=O)N1CCCN(C2=NS(=O)(=O)C(c3ccc(F)cc3)=C2C)CC1
18,788,O=C(Nc1ccc2c(c1)OCCO2)N1CCCC1c1nc(CCOCC2CC2)no1 (centres undefined)
19,612,Cc1cc(=O)n(CC(=O)Nc2c(C)cccc2C)c(N2CCOCC2)n1
20,958,CCCC(=O)Nc1cnc(-c2ccc(Cl)cc2)nc1
21,822,CCOC(=O)c1cn(CC)c2cc(N3CCCC3)c(F)cc2c1=O
22,942,COC(=O)c1ccc(-c2csc(NC(=O)C3CCCC3)n2)cc1

row,RP-LC retention time [s],SMILES
1,872,O=C(CCCS(=O)(=O)c1ccc(F)cc1)Nc1nc2c(s1)COc1ccccc1-2
2,895,Cc1ccc(S(=O)(=O)N(C)CC2CCOC2)cc1Cl (centres undefined)
3,641,CN(C)CCNc1oc(COc2ccc(Cl)cc2)nc1C#N
4,554,Nc1cc(C2CCN(C(=O)c3cccnc3)CC2)no1
5,795,Cc1nc2c([nH]1)CCN(C(=O)c1ccc(NC(=O)c3ccccc3-c3ccccc3)cc1)c1ccccc1-2
6,620,CCOC(=O)c1nc2cc(OC)c(OC)cc2[nH]c1=O
7,1290,CCc1ccc(NC(=O)C2CCCN(c3nccnc3Sc3ccc(C)cc3)C2)cc1 (centres undefined)
8,574,O=C(c1ccoc1)N1CCCC(Nc2ncnc3c2CCC3)C1 (centres undefined)
9,891,CC[C@H](C)C(=O)O[C@H]1C[C@H](O)C=C2C=C[C@H](C)[C@H](CC[C@@H]3C[C@@H](O)CC(=O)O3)[C@H]21
10,677,COc1ccc(C(=O)N(C)CC2(C)CCOCC2)cc1OC
11,986,O=C(Nc1ccc(Cl)cc1)c1cnc(-c2ccc(F)cc2)nc1-c1ccncc1
12,829,COC(=O)c1ccc(NC(=O)Cn2cccc(-c3nc(-c4ccccc4)no3)c2=O)cc1
13,1060,CCCNC(=O)c1cc2sccc2n1Cc1ccc(C)cc1
14,783,CCCCCn1c(SCC(=O)OCC)nc2cc(C(=O)N3CCC(C(N)=O)CC3)ccc2c1=O
15,594,O=C(c1ccc2cc[nH]c2c1)N1CCN(C(=O)c2cc(-c3ccncc3)n[nH]2)CC1
16,1220,Cc1cc(C(=O)NC2CCCCC2)nc2cc(-c3cccs3)nn12
17,959,COc1cc(OC)cc(N2C(=O)C3N=NN(Cc4nc(-c5ccccc5)no4)C3C2=O)c1 (centres undefined)
18,1000,Cc1noc(C)c1-c1ccc(S(=O)(=O)Nc2ccc(Cl)cc2)cc1
19,738,CC(C)C(=O)NC(Cc1ccccc1)c1nnc(N2CCSCC2)o1 (centres undefined)
20,877,Cc1ccc(S(=O)(=O)N2CCC(CCNC(=O)NCC(C)C)CC2)cc1
21,793,O=C(Cn1c(=O)c2cc(-c3ccco3)nn2c2ncccc21)NC1CCCCC1

row,SMILES,RP-LC retention time [s]
1,O=C(CN1CC=C(c2cnn(-c3ccccc3)c2)CC1)Nc1ccc2c(c1)OCCO2,675
2,CCCn1cc(C(=O)NC2CCCC2)c2cccnc21,794
